Data published in ChEMBL document CHEMBL1201862, “PubChem BioAssay data set” (2004).
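Tested at 5 concentrations; 48 h exposure; 96-well plates; endpoints linearly interpolated, else capped at highest concentration. The concentration for 50% growth inhibition is given as GI50.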 Calls of active or inactive are those of the source. No stated cut-off is given here; in the data, active = GI50 up to about 1.1 µM and inactive = higher.

Legend:
Assay in all cases: inhibition of tumour cell growth, NCI panel, 48 h
[1] = system: CAKI-1
[2] = system: SW-620
[3] = system: ACHN
[4] = system: UO-31
[5] = system: OVCAR-8
[6] = system: OVCAR-4
[7] = system: SF-539
[8] = system: IGROV-1
[9] = system: HCT-15
[10] = system: A549
[11] = system: HOP-92
[12] = system: CCRF-CEM
[13] = system: HOP-62
[14] = system: NCI-H23
[15] = system: NCI-H460
[16] = system: HCT-116

For Nc1cccc2c1C(=O)c1cccc(N)c1C2=O, the GI50 [1] was > 100 µM (inactive), the GI50 [2] was > 100 µM (inactive) and the GI50 [3] was > 100 µM (inactive). The GI50 [4] was > 100 µM (inactive), the GI50 [5] was > 100 µM (inactive) and the GI50 [6] was > 100 µM (inactive). For the same compound, the GI50 [7] was > 100 µM (inactive), the GI50 [8] was > 100 µM (inactive) and the GI50 [9] was > 100 µM. For the same compound, the GI50 [10] was > 100 µM (inactive), the GI50 [11] was > 100 µM (inactive) and the GI50 [12] was > 100 µM (inactive). For the same compound, the GI50 [13] was > 100 µM (inactive), the GI50 [14] was > 100 µM (inactive) and the GI50 [15] was > 100 µM (inactive). For the same compound, the GI50 [16] was > 100 µM (inactive).

For CCOC(=O)c1cc(/C=C/C(C)=C/C(=O)OC)oc1C, the GI50 [1] was > 100 µM (inactive), the GI50 [2] was > 100 µM (inactive) and the GI50 [3] was > 100 µM (inactive). For the same compound, the GI50 [4] was > 100 µM (inactive), the GI50 [5] was > 100 µM (inactive) and the GI50 [6] was > 100 µM (inactive). The GI50 [7] was > 100 µM (inactive), the GI50 [8] was > 100 µM (inactive) and the GI50 [9] was > 100 µM. For the same compound, the GI50 [10] was > 100 µM (inactive), the GI50 [11] was > 100 µM (inactive) and the GI50 [12] was > 100 µM (inactive). For the same compound, the GI50 [13] was > 100 µM (inactive), the GI50 [14] was > 100 µM (inactive) and the GI50 [15] was > 100 µM (inactive). The GI50 [16] was > 100 µM (inactive).

CCC1c2cc3n(c(=O)c2COC1O)Cc1c-3nc2ccccc2c1Cl (centres undefined) was tested, and the GI50 [1] was 23 µM (inactive), the GI50 [2] was > 100 µM (inactive) and the GI50 [3] was 19.3 µM (inactive). The GI50 [4] was 19.4 µM (inactive), the GI50 [5] was 55.3 µM (inactive) and the GI50 [6] was > 65.5 µM (inactive). The GI50 [7] was 22.2 µM (inactive), the GI50 [8] was > 75.3 µM (inactive) and the GI50 [9] was > 94.2 µM. For the same compound, the GI50 [10] was 28.5 µM (inactive), the GI50 [11] was > 100 µM (inactive) and the GI50 [12] was 3.34 µM (inactive). For the same compound, the GI50 [13] was 14.8 µM (inactive), the GI50 [14] was 28.7 µM (inactive) and the GI50 [15] was 3.89 µM (inactive). For the same compound, the GI50 [16] was 20.1 µM (inactive).

For COc1cc(/C=N\c2ccc(C(C)C)cc2)cc(OC)c1OC, the GI50 [1] was > 100 µM (inactive), the GI50 [2] was > 37 µM (inactive) and the GI50 [3] was > 100 µM (inactive). The GI50 [4] was > 74.1 µM (inactive), the GI50 [5] was > 100 µM (inactive) and the GI50 [6] was > 100 µM (inactive). The GI50 [7] was > 100 µM (inactive), the GI50 [8] was > 100 µM (inactive) and the GI50 [9] was > 55.5 µM. For the same compound, the GI50 [10] was > 100 µM (inactive), the GI50 [11] was > 88.3 µM (inactive) and the GI50 [12] was > 66.8 µM (inactive). For the same compound, the GI50 [13] was > 100 µM (inactive), the GI50 [14] was > 100 µM (inactive) and the GI50 [15] was 97.3 µM (inactive). For the same compound, the GI50 [16] was > 100 µM (inactive).

COc1cc(NS(=O)(=O)c2ccc(C)cc2)c2nccnc2c1 was tested, and the GI50 [1] was 37.6 µM (inactive), the GI50 [2] was 37.8 µM (inactive) and the GI50 [3] was 23.1 µM (inactive). The GI50 [4] was 34.4 µM (inactive), the GI50 [5] was 26.7 µM (inactive) and the GI50 [6] was 39.6 µM (inactive). The GI50 [7] was 29.2 µM (inactive), the GI50 [8] was 36.9 µM (inactive) and the GI50 [9] was 17.7 µM. For the same compound, the GI50 [10] was 24 µM (inactive), the GI50 [11] was 35.2 µM (inactive) and the GI50 [12] was 10.3 µM (inactive). For the same compound, the GI50 [13] was 33.2 µM (inactive), the GI50 [14] was 34.4 µM (inactive) and the GI50 [15] was 13 µM (inactive).

O=C1C=CC(=O)c2nc3c(cc21)CCC3 was tested, and the GI50 [1] was 17 µM (inactive), the GI50 [2] was 16.6 µM (inactive) and the GI50 [3] was 18.8 µM (inactive). The GI50 [4] was > 100 µM (inactive), the GI50 [5] was 15.2 µM (inactive) and the GI50 [6] was 15.7 µM (inactive). The GI50 [7] was > 10 µM (inactive), the GI50 [8] was 17.8 µM (inactive) and the GI50 [10] was 87.3 µM (inactive). For the same compound, the GI50 [11] was 19.5 µM (inactive), the GI50 [12] was 5.61 µM (inactive) and the GI50 [13] was > 100 µM (inactive). The GI50 [14] was 25 µM (inactive), the GI50 [15] was 32.7 µM (inactive) and the GI50 [16] was 15.5 µM (inactive).

With CCOC(=O)C1=C(Nc2cccc3ccccc23)OCC1=O the GI50 [1] was > 100 µM (inactive), the GI50 [2] was > 100 µM (inactive) and the GI50 [3] was > 100 µM (inactive). For the same compound, the GI50 [4] was > 100 µM (inactive), the GI50 [5] was > 100 µM (inactive) and the GI50 [6] was > 100 µM (inactive). The GI50 [7] was > 100 µM (inactive), the GI50 [8] was > 100 µM (inactive) and the GI50 [10] was > 100 µM (inactive). For the same compound, the GI50 [11] was > 100 µM (inactive), the GI50 [12] was > 100 µM (inactive) and the GI50 [13] was > 100 µM (inactive). For the same compound, the GI50 [14] was > 100 µM (inactive), the GI50 [15] was > 100 µM (inactive) and the GI50 [16] was > 100 µM (inactive).
